Measured values: patent US7074789B2, “Kinase inhibitors” (Amgen Inc., priority 1999, dated 2006)

Columns and labels:
Type in all cases: biochemical
Zap-70 = target: T1, Zap-70 (Homo sapiens, UniProt P43403); assay: Kinase inhibition assay (33P transfer), Zap-70; details: Table 3, class symbols; read-out: Zap-1
T1 construct: Kinases are expressed as either kinase domains or full length constructs; made in house
T1 sequence (P43403 1-619): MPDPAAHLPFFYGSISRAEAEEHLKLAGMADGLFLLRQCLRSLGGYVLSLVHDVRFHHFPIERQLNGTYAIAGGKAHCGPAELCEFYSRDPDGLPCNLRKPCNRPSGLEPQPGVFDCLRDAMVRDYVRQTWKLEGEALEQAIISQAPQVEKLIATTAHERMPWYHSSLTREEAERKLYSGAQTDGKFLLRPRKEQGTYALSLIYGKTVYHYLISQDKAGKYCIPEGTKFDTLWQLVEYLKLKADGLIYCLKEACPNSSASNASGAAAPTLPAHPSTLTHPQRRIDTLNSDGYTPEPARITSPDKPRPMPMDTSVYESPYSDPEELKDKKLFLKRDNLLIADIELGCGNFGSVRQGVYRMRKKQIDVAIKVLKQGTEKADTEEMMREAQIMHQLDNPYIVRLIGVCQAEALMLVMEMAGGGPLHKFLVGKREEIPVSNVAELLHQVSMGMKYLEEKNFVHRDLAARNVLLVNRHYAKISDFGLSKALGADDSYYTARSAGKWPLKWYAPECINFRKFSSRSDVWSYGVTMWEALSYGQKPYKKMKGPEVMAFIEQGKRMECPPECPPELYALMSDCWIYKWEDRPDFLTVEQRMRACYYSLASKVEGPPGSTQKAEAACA
Outline: (§1)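 Liquid scintillation counting of 33P on plate-bound synthetic substrates gives kinase activity. Plates are washed in 0.5% phosphoric acid first; kinases are tagged recombinant proteins from E. coli or baculovirus-infected High Five cells.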

PDGFRB = target: T2, PDGFRB (Homo sapiens, UniProt P09619); assay: Kinase inhibition assay (33P transfer), PDGFRB; details: read-out: PDGFRB-1
T2 construct: Kinases are expressed as either kinase domains or full length constructs; made in house
T2 sequence (P09619 33-1106, species assumed): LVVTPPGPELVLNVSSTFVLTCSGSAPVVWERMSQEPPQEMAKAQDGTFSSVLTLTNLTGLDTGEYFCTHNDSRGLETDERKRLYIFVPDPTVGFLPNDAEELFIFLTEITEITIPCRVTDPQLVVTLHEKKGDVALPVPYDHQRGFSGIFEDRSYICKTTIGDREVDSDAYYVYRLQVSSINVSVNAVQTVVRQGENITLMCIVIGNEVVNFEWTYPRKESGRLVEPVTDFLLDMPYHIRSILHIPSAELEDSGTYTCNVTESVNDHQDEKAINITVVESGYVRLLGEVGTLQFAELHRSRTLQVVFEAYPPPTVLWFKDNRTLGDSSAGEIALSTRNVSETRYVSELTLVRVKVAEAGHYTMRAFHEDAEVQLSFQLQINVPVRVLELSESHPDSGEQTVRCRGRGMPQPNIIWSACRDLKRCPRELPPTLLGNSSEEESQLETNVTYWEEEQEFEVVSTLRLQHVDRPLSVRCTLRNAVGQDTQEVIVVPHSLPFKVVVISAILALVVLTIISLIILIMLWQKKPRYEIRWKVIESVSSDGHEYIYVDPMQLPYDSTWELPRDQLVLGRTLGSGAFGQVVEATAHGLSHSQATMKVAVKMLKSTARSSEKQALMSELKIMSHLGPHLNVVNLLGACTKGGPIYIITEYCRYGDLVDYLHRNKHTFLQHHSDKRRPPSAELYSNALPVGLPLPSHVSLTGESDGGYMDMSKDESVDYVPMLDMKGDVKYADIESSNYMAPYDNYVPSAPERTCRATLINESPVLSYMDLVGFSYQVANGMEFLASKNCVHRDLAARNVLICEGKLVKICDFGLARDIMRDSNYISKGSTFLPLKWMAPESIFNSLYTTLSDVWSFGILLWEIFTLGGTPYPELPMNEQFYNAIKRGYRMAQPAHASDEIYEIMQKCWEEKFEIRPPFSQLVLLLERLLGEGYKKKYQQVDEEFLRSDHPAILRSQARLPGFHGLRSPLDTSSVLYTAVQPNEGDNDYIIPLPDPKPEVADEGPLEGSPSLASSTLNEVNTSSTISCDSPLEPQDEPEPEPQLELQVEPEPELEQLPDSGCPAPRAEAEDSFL

Kdr = target: T3, Kdr (Homo sapiens, UniProt P35968); assay: Kinase inhibition assay (33P transfer), Kdr; details: Table 3, class symbols; read-out: KDR-1
T3 construct: Kinases are expressed as either kinase domains or full length constructs; made in house
Outline: as §1

IGFR-1 = target: T4, IGFR-1 (Homo sapiens, UniProt P08069); assay: Kinase inhibition assay (33P transfer), IGFR-1; details: Table 2, class symbols A-E
T4 construct: Kinases are expressed as either kinase domains or full length constructs; made in house

c-Met = target: T5, c-Met (Homo sapiens, UniProt P08581); assay: Kinase inhibition assay (33P transfer), c-Met; details: Table 2, class symbols A-E; read-out: Met-1
T5 construct: Kinases are expressed as either kinase domains or full length constructs; made in house
T5 sequence (P08581 25-1390): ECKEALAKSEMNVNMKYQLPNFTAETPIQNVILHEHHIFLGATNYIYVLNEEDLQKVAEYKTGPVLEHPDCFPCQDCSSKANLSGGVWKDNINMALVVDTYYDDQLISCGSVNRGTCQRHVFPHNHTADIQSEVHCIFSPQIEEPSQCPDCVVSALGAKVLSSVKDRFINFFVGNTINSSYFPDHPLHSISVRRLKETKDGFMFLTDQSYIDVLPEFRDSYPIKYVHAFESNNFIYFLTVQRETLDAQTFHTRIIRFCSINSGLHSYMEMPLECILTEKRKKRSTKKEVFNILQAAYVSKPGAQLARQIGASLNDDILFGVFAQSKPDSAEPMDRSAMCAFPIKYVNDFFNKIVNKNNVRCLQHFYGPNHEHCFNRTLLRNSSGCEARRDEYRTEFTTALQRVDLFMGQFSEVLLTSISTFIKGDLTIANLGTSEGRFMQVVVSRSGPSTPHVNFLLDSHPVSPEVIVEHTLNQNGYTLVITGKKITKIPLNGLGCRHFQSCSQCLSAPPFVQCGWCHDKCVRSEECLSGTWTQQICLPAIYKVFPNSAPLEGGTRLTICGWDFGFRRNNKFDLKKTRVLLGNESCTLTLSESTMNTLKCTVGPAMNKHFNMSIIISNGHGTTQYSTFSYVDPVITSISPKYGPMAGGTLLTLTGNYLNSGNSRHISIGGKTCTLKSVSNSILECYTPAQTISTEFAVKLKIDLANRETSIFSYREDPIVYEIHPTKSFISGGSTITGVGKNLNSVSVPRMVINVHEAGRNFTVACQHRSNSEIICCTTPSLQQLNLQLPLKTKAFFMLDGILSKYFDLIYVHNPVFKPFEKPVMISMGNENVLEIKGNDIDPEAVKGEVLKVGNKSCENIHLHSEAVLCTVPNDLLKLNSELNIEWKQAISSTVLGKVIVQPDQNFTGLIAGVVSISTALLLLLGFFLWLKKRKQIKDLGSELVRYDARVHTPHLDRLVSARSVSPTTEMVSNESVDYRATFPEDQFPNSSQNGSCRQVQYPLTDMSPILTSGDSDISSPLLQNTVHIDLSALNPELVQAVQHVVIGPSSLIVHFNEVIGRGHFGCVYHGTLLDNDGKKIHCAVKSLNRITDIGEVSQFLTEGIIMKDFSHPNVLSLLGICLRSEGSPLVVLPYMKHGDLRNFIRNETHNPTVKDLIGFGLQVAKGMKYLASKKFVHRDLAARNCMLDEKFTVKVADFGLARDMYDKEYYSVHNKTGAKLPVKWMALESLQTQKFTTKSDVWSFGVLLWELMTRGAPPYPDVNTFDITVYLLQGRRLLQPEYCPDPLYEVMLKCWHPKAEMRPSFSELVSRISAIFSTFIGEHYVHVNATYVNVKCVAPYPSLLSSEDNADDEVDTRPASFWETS
Outline: (§2)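 Kinase domains or full-length enzymes, GST- or polyHis-tagged, were expressed in E. coli or baculovirus High Five cells and affinity-purified. Transfer of 33PO4 from ATP onto plate-bound poly(Glu,Tyr) 4:1 or poly(Arg,Ser) 3:1 was counted by liquid scintillation after a 0.5% phosphoric acid wash. IC50 = concentration halving incorporation.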

Itk = target: T6, Itk (Homo sapiens, UniProt Q08881); assay: Kinase inhibition assay (33P transfer), Itk; details: Table 3, class symbols; read-out: Itk-1
T6 construct: Kinases are expressed as either kinase domains or full length constructs; made in house
T6 sequence (Q08881 1-620): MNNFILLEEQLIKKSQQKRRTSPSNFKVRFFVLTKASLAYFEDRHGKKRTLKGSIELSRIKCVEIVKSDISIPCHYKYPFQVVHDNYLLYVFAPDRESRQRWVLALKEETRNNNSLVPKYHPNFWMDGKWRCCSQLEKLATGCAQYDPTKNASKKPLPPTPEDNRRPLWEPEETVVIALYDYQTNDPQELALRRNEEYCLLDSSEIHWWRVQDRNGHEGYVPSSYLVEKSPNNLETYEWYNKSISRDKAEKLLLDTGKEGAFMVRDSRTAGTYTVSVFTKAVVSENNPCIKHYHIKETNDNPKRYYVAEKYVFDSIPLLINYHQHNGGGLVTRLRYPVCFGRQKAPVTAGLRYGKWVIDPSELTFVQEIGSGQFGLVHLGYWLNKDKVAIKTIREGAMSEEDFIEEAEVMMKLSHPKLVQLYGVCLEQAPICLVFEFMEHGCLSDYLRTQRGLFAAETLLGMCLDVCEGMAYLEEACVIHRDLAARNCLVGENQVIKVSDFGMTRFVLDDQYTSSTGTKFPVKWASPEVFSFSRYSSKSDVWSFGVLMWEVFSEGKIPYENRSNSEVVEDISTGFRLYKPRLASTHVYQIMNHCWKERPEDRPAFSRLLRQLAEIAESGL
Outline: as §2

AKT = target: T7, AKT (Homo sapiens, UniProt Q9Y243); assay: Kinase inhibition assay (33P transfer), AKT; details: Table 2, class symbols A-E; read-out: AKT3-1
T7 construct: Kinases are expressed as either kinase domains or full length constructs; made in house
Outline: as §1

ErbB2 = target: T8, ErbB2 (Homo sapiens, UniProt P04626); assay: Kinase inhibition assay (33P transfer), ErbB2; details: read-out: ErbB2-2
T8 construct: Kinases are expressed as either kinase domains or full length constructs; made in house
T8 sequence (P04626 23-1255, species assumed): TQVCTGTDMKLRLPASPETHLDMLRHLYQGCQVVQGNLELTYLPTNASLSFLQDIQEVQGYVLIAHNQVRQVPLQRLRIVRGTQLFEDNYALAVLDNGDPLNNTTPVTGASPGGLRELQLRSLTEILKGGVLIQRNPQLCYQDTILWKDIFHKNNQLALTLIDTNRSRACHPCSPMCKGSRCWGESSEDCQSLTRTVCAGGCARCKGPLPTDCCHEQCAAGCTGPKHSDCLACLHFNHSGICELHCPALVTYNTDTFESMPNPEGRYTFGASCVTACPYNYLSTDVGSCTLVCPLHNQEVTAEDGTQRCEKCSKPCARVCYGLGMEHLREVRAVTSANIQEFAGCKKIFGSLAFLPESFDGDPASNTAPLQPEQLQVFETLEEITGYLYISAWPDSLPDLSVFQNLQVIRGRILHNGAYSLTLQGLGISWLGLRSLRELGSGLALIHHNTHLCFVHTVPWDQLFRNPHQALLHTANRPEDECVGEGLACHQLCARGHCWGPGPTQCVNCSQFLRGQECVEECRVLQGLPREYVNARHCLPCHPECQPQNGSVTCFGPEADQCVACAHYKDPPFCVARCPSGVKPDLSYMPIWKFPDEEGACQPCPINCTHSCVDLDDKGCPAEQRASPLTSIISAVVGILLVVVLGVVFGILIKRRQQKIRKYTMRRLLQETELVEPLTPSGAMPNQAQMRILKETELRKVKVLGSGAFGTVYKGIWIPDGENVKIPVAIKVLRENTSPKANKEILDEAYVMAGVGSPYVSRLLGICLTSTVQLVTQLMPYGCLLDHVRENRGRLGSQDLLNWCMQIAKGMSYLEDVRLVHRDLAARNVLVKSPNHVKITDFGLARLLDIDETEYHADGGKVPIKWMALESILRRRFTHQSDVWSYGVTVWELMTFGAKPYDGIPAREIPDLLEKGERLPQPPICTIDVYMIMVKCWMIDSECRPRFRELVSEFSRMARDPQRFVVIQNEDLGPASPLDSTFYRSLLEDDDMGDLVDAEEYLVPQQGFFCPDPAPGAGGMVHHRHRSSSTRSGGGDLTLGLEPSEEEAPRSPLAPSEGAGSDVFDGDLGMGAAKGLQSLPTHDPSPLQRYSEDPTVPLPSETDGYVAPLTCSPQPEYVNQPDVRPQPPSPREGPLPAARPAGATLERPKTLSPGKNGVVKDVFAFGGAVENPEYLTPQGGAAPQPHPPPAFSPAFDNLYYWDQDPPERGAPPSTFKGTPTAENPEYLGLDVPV
Outline: as §2

EGFR = target: T9, EGFR (Homo sapiens, UniProt P00533); assay: Kinase inhibition assay (33P transfer), EGFR; details: Table 2, class symbols A-E; read-out: EGFR-1
T9 construct: Kinases are expressed as either kinase domains or full length constructs; made in house
T9 sequence (P00533 25-1210, species assumed): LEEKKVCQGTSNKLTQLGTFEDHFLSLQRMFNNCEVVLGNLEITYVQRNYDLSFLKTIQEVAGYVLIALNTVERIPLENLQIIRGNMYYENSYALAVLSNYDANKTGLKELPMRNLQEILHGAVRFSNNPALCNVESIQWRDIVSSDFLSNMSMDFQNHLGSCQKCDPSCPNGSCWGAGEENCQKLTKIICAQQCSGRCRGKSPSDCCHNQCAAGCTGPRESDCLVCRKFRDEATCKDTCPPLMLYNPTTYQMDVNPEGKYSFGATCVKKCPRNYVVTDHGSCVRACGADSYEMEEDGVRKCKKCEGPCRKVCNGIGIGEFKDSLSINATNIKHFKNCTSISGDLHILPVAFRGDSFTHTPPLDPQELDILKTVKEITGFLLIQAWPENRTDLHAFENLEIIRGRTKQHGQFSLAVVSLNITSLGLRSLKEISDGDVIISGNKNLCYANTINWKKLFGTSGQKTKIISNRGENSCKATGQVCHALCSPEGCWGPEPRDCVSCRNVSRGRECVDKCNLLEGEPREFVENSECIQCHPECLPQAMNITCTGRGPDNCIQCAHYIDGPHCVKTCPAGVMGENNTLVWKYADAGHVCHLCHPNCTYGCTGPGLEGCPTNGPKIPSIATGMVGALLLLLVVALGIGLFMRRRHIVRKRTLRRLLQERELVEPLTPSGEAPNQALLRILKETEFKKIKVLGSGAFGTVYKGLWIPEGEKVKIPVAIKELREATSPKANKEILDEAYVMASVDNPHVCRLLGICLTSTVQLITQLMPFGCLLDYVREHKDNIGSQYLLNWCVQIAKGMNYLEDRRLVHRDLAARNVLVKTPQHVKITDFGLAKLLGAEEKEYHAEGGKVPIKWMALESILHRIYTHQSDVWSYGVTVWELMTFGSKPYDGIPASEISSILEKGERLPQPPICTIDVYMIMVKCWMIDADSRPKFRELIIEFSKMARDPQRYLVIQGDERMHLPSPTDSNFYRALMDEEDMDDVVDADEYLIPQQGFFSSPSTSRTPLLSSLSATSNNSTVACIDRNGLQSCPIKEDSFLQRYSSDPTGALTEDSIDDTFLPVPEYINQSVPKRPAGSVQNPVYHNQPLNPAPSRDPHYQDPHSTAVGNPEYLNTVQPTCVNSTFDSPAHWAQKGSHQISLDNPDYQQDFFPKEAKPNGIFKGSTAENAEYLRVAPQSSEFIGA
Outline: as §2

Lck = target: T10, Lck (Homo sapiens, UniProt P06239); assay: Kinase inhibition assay (33P transfer), Lck; details: Table 3, class symbols; read-out: Lck-1
T10 construct: Kinases are expressed as either kinase domains or full length constructs; made in house
Outline: as §1

Row | IC50 (Zap-70) | IC50 (PDGFRB) | IC50 (Kdr) | IC50 (IGFR-1) | IC50 (c-Met) | IC50 (Itk) | IC50 (AKT) | IC50 (ErbB2) | IC50 (EGFR) | IC50 (Lck) | Structure (SMILES)
1 | > 12.1 µM | 1.08 to 6.46 µM | 1.08 to 6.46 µM | < 1.08 µM | 1.08 to 6.46 µM | < 1.08 µM | > 12.1 µM | 1.08 to 6.46 µM | < 1.08 µM | < 1.08 µM | Cc1ccc(-c2cc(Nc3ncnc(Nc4cc(C)ccc4C)n3)[nH]n2)cc1 [Compound 1125]
2 | > 12.3 µM | > 12.3 µM | > 12.3 µM | > 12.3 µM | > 12.3 µM | > 12.3 µM | > 12.3 µM | 6.57 to 9.58 µM | 1.09 to 6.57 µM | 1.09 to 6.57 µM | COc1ccc(Nc2ncnc(N(C)[C@H](C)c3ccccc3)n2)cc1OC [Compound 803]
3 | > 13.1 µM | 1.16 to 6.99 µM | 10.2 to 13.1 µM | > 13.1 µM | 1.16 to 6.99 µM | 6.99 to 10.2 µM | > 13.1 µM | 6.99 to 10.2 µM | < 1.16 µM | < 1.16 µM | COc1ccc(Nc2ncnc(N(C)C3CCCCC3)n2)cc1OC [Compound 796]
4 | > 13.3 µM | 7.11 to 10.4 µM | 1.19 to 7.11 µM | 7.11 to 10.4 µM | 1.19 to 7.11 µM | > 13.3 µM | > 13.3 µM | 1.19 to 7.11 µM | < 1.19 µM | 1.19 to 7.11 µM | COc1ccc(Nc2ncnc(N(C)c3ccccc3)n2)cc1OC [Compound 797]
5 | > 10.6 µM | > 10.6 µM | > 10.6 µM | > 10.6 µM | > 10.6 µM | > 10.6 µM | > 10.6 µM | > 10.6 µM | > 10.6 µM | > 10.6 µM | COc1cc(CNc2ncnc(Nc3cc(-c4ccco4)n[nH]3)n2)cc(OC)c1OC [Compound 997]
6 | > 8.85 µM | 0.787 to 4.72 µM | < 0.787 µM | > 8.85 µM | > 8.85 µM | > 8.85 µM | 0.787 to 4.72 µM | 4.72 to 6.88 µM | > 8.85 µM | 0.787 to 4.72 µM | COc1cc(Nc2ncnc(-c3cccnc3NC(C)c3cccc4ccccc34)n2)cc(OC)c1OC (centres unmarked) [Compound 845]
7 | > 12 µM | < 1.07 µM | < 1.07 µM | 9.36 to 12 µM | 9.36 to 12 µM | > 12 µM | > 12 µM | 6.42 to 9.36 µM | 1.07 to 6.42 µM | > 12 µM | O=C(O)Cc1cccc(Nc2ncnc(Nc3ccc(Cl)cc3F)n2)c1 [Compound 968]
8 | > 12.3 µM | 1.09 to 6.56 µM | 1.09 to 6.56 µM | > 12.3 µM | 1.09 to 6.56 µM | > 12.3 µM | > 12.3 µM | 1.09 to 6.56 µM | < 1.09 µM | 1.09 to 6.56 µM | CN(c1cccc(Cl)c1)c1ncnc(Nc2ccc3c(cnn3C)c2)n1 [Compound 674]
9 | > 9.81 µM | < 0.872 µM | < 0.872 µM | > 9.81 µM | > 9.81 µM | > 9.81 µM | > 9.81 µM | 7.63 to 9.81 µM | > 9.81 µM | < 0.872 µM | COc1cc(Nc2ncnc(-c3cccnc3NC(C)c3ccccc3)n2)cc(OC)c1OC (centres unmarked) [Compound 843]
10 | > 10.6 µM | 0.945 to 5.67 µM | 5.67 to 8.26 µM | 5.67 to 8.26 µM | 0.945 to 5.67 µM | 8.26 to 10.6 µM | 8.26 to 10.6 µM | 0.945 to 5.67 µM | < 0.945 µM | 0.945 to 5.67 µM | COc1cccc(Nc2ncnc(Nc3ccc4c(cnn4Cc4ccccc4)c3)n2)c1 [Compound 904]
11 | > 12.2 µM | 1.08 to 6.5 µM | > 12.2 µM | > 12.2 µM | > 12.2 µM | > 12.2 µM | > 12.2 µM | > 12.2 µM | > 12.2 µM | > 12.2 µM | COC(=O)c1ccc(-c2cc(Nc3ncnc(NCCCO)n3)[nH]n2)cc1 [Compound 818]
12 | > 11.3 µM | 1.01 to 6.03 µM | < 1.01 µM | 8.8 to 11.3 µM | 1.01 to 6.03 µM | < 1.01 µM | > 11.3 µM | 1.01 to 6.03 µM | < 1.01 µM | 1.01 to 6.03 µM | C=CCN(c1cccc(Cl)c1)c1ncnc(Nc2cc(OC)cc(OC)c2)n1 [Compound 722]
13 | > 9.46 µM | < 0.841 µM | < 0.841 µM | 7.36 to 9.46 µM | > 9.46 µM | > 9.46 µM | > 9.46 µM | 7.36 to 9.46 µM | 5.05 to 7.36 µM | 0.841 to 5.05 µM | c1ccc(CNc2nc3ccccc3n2-c2ncnc(Nc3cccc(Cn4ccnn4)c3)n2)nc1 [Compound 962]
14 | > 10.4 µM | > 10.4 µM | 8.11 to 10.4 µM | 0.927 to 5.56 µM | 0.927 to 5.56 µM | 8.11 to 10.4 µM | > 10.4 µM | 5.56 to 8.11 µM | > 10.4 µM | 0.927 to 5.56 µM | CCOc1cccc(Nc2ncnc(Nc3cc(-c4ccc(C(=O)OC)cc4)n[nH]3)n2)c1 [Compound 812]
15 | > 12.3 µM | 1.09 to 6.56 µM | 1.09 to 6.56 µM | 6.56 to 9.57 µM | 1.09 to 6.56 µM | > 12.3 µM | > 12.3 µM | < 1.09 µM | < 1.09 µM | 1.09 to 6.56 µM | CN(c1cccc(Cl)c1)c1ncnc(Nc2ccc3nn(C)cc3c2)n1 [Compound 675]
16 | 6.5 to 9.48 µM | < 1.08 µM | < 1.08 µM | < 1.08 µM | 1.08 to 6.5 µM | 1.08 to 6.5 µM | 1.08 to 6.5 µM | 1.08 to 6.5 µM | 1.08 to 6.5 µM | 1.08 to 6.5 µM | c1ccc(-c2cc(Nc3ncnc(Nc4ccc5[nH]ncc5c4)n3)[nH]n2)cc1 [Compound 1013]
17 | 9.74 to 12.5 µM | 1.11 to 6.68 µM | 6.68 to 9.74 µM | 6.68 to 9.74 µM | 9.74 to 12.5 µM | 9.74 to 12.5 µM | > 12.5 µM | 1.11 to 6.68 µM | 1.11 to 6.68 µM | 1.11 to 6.68 µM | COc1ccc(Nc2ncnc(Nc3ccc(F)c(F)c3)n2)cc1OC [Compound 794]
18 | 6.62 to 8.51 µM | 4.54 to 6.62 µM | 0.757 to 4.54 µM | > 8.51 µM | 6.62 to 8.51 µM | > 8.51 µM | > 8.51 µM | 6.62 to 8.51 µM | > 8.51 µM | > 8.51 µM | COc1cc(Nc2ncnc(-c3cccnc3NCc3ccccc3OC(F)(F)F)n2)cc(OC)c1OC [Compound 842]
19 | > 10.6 µM | > 10.6 µM | > 10.6 µM | 8.27 to 10.6 µM | > 10.6 µM | > 10.6 µM | > 10.6 µM | > 10.6 µM | > 10.6 µM | > 10.6 µM | COC(=O)c1ccc(-c2cc(Nc3ncnc(Nc4cc(F)cc(F)c4)n3)[nH]n2)cc1 [Compound 810]
20 | 7.92 to 10.2 µM | 0.905 to 5.43 µM | 5.43 to 7.92 µM | > 10.2 µM | 0.905 to 5.43 µM | > 10.2 µM | > 10.2 µM | 5.43 to 7.92 µM | < 0.905 µM | 5.43 to 7.92 µM | CN(c1cccc(Cl)c1)c1ncnc(Nc2ccc3nn(Cc4ccccc4)cc3c2)n1 [Compound 673]
